The target of one test is HSP27 (Homo sapiens, UniProt P04792). As to the kind of experiment: Capillary electrophoresis of heat-denatured citrate synthase protein precipitates. The format is biochemical. As to conditions: for times higher activity than BVDU for the inhibition of the HSP27 protein / Efficacy compared with BVDU: 10 μmol/L vs 750 μmol/L BVDU; for times higher activity than BVDU for the inhibition of the HSP27 protein / Rel. quantity of protein prec. CS: 43° C. for 120 minutes; for Rel. quantity of protein prec. CS: 10 μmol/L; for BVDU equivalent dose: based on 100 mg BVDU. The procedure: Since the heat-denatured protein aggregates of the citrate synthase from Example 1 are not water-soluble, these can be separated completely from the supernatant by means of centrifugation at room temperature at 16,000×g, 10 min. By using capillary electrophoresis, the compositions of the separated precipitates can be shown and quantified. The relative quantity of protein of precipitated citrate synthase serves as a measure of the efficacy of the test substances.
In each case, 481 nmol/L HSP27 and 1.44 μmol/L citrate synthase in 40 mmol/L HEPES buffer, pH 7.4, were employed. The relative quantity of protein of the precipitated citrate synthase in each case was normalized using a defined quantity of BSA as internal standard. The relative quantity of protein that precipitated when using 750 μmol/L BVDU was set at 1. The other test substances (2 representatives of phenothiazine derivatives of general formula (V), 2 representatives of purine derivatives of formula (I) or (II)) were each employed at a concentration of 10 μmol/L.
Since the heat-denatured protein aggregates of the citrate synthase from Example 2 are not water-soluble, these can be separated completely from the supernatant by means of centrifugation at room temperature at 16,000×g, 10 min. By using capillary electrophoresis, the compositions of the separated precipitates can be shown and quantified. The relative quantity of protein of precipitated citrate synthase serves as a measure of the efficacy of the test substances.
In each case, 481 nM HSP27 and 1.44 μmol/L citrate synthase in 40 mmol/L HEPES buffer, pH 7.4, were employed. The relative quantity of protein of the precipitated citrate synthase in each case was normalized using a defined quantity of BSA as internal standard. The relative quantity of protein that precipitated when using 750 μmol/L BVDU was set at 1. The other test substances (2 representatives of phenothiazine derivatives of general formula (V), 2 representatives of thymine derivatives of formula (I) or (II)) were employed at a concentration of 10 μmol/L in each case.
Otherwise, the experiments were performed as described above: […]

Another test relates to U937 cells. As to the kind of experiment: Development of resistance to bortezomib in U937 cells. The format is cell-based. As to conditions: bortezomib 0.1-0.5 ng/ml + 0.75 μmol/L test substance (FIG. 11a). Here is the method:
For this purpose, U937 cells (histiocytic lymphoma) were cultured in DMEM culture medium (+10% FCS) at 37° C., 5% CO2 in an H2O-saturated atmosphere. 100,000 cells/ml were seeded and incubated with the cytostatic agent bortezomib (0.1 ng/ml) and the respective test substance (dosage in the current experiment: 1 μM/L acepromazine). The reference substance, BVDU, was employed at a concentration of 30 μM/L. The cells were in each case passaged before the cell count reached 1,000,000 cells/ml. At each passage, 100,000 cells/ml were again seeded and the dose of the cytostatic agent bortezomib was increased stepwise (0.1 ng/mL or 0.05 ng/mL). The concentration of the test substances remained constant. As a result of the stepwise increase in the dosage of the cytostatic agent, resistance developed in the U937 cells. The development of resistance is prevented or inhibited in the case of a positively tested HSP27 inhibitor. The experiments from Example 6 were repeated in the same way, wherein U937 cells (histiocytic lymphoma) are cultured in DMEM culture medium (+10% FCS) at 37° C., 5% CO2 in an H2O-saturated atmosphere. 100,000 cells/ml were seeded and incubated with an initial concentration of 0.2 ng/ml of the cytostatic agent bortezomib and both without an inhibitor and with acepromazine as an HSP27 inhibitor at a concentration of 1 μM/L. The reference substance, BVDU, was employed at a concentration of 30 μM/L. The cells were passaged in each case before the cell count reached 1,000,000 cells/ml. At each passage, 100,000 cells/ml were again seeded and the dose of the cytostatic agent bortezomib was increased stepwise by 0.1 ng/mL. The concentration of the test substance and the reference substance remained constant. As a result of the stepwise increase in the dosage of the cytostatic agent, resistance developed in the U937 cells. The development of resistance is prevented or inhibited in the case of a positively tested HSP27 inhibitor. The cell line U-937 is a histiocytic lymphoma (DSMZ ACC 5). This cell line also responds to treatment with bortezomib, expresses HSP27 and develops resistance to bortezomib. Bortezomib is not the standard therapy for this lymphoma, but is being discussed as a possible therapeutic agent. U-937 cells were seeded with a cell count of 100,000 cells/ml in each case and regularly passaged. […] At the end of the experiment, 70,000 living cells per ml medium could be detected. For the treatment with 30 μmol/L BVDU, a final cell count of 250,000 cells/ml was detected whereas the final cell count in the culture without the addition of an HSP27 inhibitor amounted to 450,000 cells/ml. As a control, U-937 cells were treated with the respective test substances alone, FIG. 10b.

Test [1] has as its system RPMI-8226 cells. Briefly: Development of resistance to bortezomib in RPMI-8226 cells. The format is cell-based.
The test system of test [2] is RPMI-8226 cells. Described as above. The format is cell-based. As to conditions: bortezomib 0.075-0.275 ng/ml + 1 μmol/L test substance (FIG. 8a). Here is the method: The cell line RPMI-8226 (DMSZ 402) is a “multiple myeloma” cell line and was chosen because bortezomib is employed as a standard therapy for multiple myeloma. RPMI-8226 cells respond to bortezomib, express HSP27 and develop resistance to Velcade. RPMI-8226 cells were seeded at a cell count of 100,000 cells/ml in each case and regularly passaged. […] In contrast, for RPMI 8226 cells that were treated with 30 μmol/L BVDU, a final cell count of 160,000 cells/ml was detected whereas the final cell count for the culture without the addition of an HSP27 inhibitor amounted to 350,000 cells/ml. As a control, RPMI 8226 cells were treated with the respective test substances alone, FIG. 4b.

Where [3] appears, read: 43° C. for 120 minutes (Table 2).
Where [4] appears, read: relative to 750 μmol/L BVDU = 1 (Table 2).

HSP27, sequence (P04792 whole entry): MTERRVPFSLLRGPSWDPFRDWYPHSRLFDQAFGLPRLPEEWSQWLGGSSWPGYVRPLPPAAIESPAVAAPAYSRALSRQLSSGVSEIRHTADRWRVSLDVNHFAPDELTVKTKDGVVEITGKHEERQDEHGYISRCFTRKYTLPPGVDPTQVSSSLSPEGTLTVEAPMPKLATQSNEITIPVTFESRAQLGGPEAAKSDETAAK

On to `CCCCc1ccc(Nc2nc3c(ncn3COCCO)c(=O)[nH]2)cc1` [2-(4-butylphenylamino)-9-(2-hydroxyethoxymethyl)-1,9-dihydropurin-6-one], for which the “times higher activity than BVDU for the inhibition of the HSP27 protein” value at HSP27 is 69 times. In addition, at HSP27 (43° C. for 120 minutes (Table 1)), the “Efficacy compared with BVDU” value is listed as 69.0 x. Besides, the “Rel. quantity of protein prec. CS” value at HSP27 (relative to 750 μmol/L BVDU = 1 (Table 1)) came out at 0.92. Also, the BVDU equivalent dose on HSP27 was found to be 1.4 mg. Moreover, the “development of resistance to the cytostatic agent bortezomib” value (“development of resistance” below) in the test on U937 cells and with RPMI-8226 cells [1] (bortezomib 0.1-0.3 ng/ml + 1 μM/L test substance (FIG. 6a)) was “significantly inhibited” throughout. Further, the “living cells at the end of the experiment” value (shortened to “living cells at the end”) is 30,000 living cells per ml medium with U937 cells (without HSP27 inhibitor 450,000 cells/ml) and 240,000 living cells per ml medium in the test with RPMI-8226 cells [1] (bortezomib 0.1-0.3 ng/ml + 1 μM/L test substance (FIG. 6a), without HSP27 inhibitor 950,000 cells/ml).

Take `Cc1cn(CC=CCNC(=O)Cc2ccc(-c3ccccc3)cc2)c(=O)[nH]c1=O` [2-biphenyl-4-yl-N-[4-(5-methyl-2,4-dioxo-3,4-dihydro-2H-pyrimidin-1-yl)-but-2-enyl]-acetamide]: on HSP27, the “times higher activity than BVDU for the inhibition of the HSP27 protein” value is 61 times and the BVDU equivalent dose was 1.6 mg. In addition, the “Efficacy compared with BVDU” value at HSP27 (setting [3]) is listed as 60.75 x. Further, the “Rel. quantity of protein prec. CS” value on HSP27 (setting [4]) is 0.81. For the same compound, the “development of resistance” value with RPMI-8226 cells [1] (bortezomib 0.075-0.275 ng/ml + 1 μmol/L test substance (FIG. 9a)) was “significantly inhibited”. Further, in the test with RPMI-8226 cells [1] (bortezomib 0.075-0.275 ng/ml + 1 μmol/L test substance (FIG. 9a), without HSP27 inhibitor 510,000 cells/ml), the “living cells at the end” value is 380,000 living cells per ml medium.

Turning to `Cc1cn(CC=CCNC(=O)C2c3ccccc3Oc3ccccc32)c(=O)[nH]c1=O` [9H-xanthene-9-carboxylic acid [4-(5-methyl-2,4-dioxo-3,4-dihydro-2H-pyrimidin-1-yl)-but-2-enyl]amide], on HSP27, the “times higher activity than BVDU for the inhibition of the HSP27 protein” value was 49 times and the BVDU equivalent dose result is “less than 2 mg”. On HSP27 (setting [3]), the “Efficacy compared with BVDU” value is listed as 48.75 x. The “Rel. quantity of protein prec. CS” value at HSP27 (setting [4]) stood at 0.65. Also, the “development of resistance” value in the test with RPMI-8226 cells [2] is reported as “significantly inhibited”. Also, in the test on RPMI-8226 cells [1] (bortezomib 0.075-0.275 ng/ml + 1 μmol/L test substance (FIG. 8a), without HSP27 inhibitor 510,000 cells/ml), the “living cells at the end” value is given as 290,000 living cells per ml medium.

For the origin of these results see patent US10940150B2, “Thymine derivatives and quinazoline-dione derivatives for the inhibition of HSP27” (TECHNISCHE UNIVERSITAET DRESDEN, priority 2014, dated 2021).
